Experimental findings from ChEMBL document CHEMBL1149540, “Synthesis and in vitro protozoocidal activity of diazabicyclic benzotropolone derivatives” (Bioorg Med Chem Lett, 2007) are described below.

The test system of one data set is Trypanosoma cruzi. Briefly: Inhibition of Trypanosoma cruzi. The format is functional, organism-based.
Another data set concerns Leishmania donovani. Briefly: Inhibition of Leishmania donovani. It is filed as functional, organism-based.
Data set [1] is described as follows: Cytotoxicity against KB cells. The format is cell-based. As to conditions: human, read-out: ED50 (the source's name).
Data set [2] is described as follows: Therapeutic index, ratio of IC50 for Leishmania donovani to ED50 for KB cells. The format is cell-based. As to conditions: human, read-out: TI.
Data set [3] is described as follows: Therapeutic index, ratio of IC50 for Trypanosoma cruzi to ED50 for KB cells. It is filed as cell-based. As to conditions: human, read-out: TI.

Each structure is given as a SMILES string. Values after ≈ are worked out from the molar mass of the structure shown.

Consider `COC(=O)N1[C@@H]2C=C[C@@](OC)(C(=O)c3c2cc(OC)c(OC)c3OC)N1C(=O)OC`, for which the IC50 with Trypanosoma cruzi and with Leishmania donovani was over 71 µM throughout. Moreover, the CC50 in data set [1] is over 300 µg/mL.

Turning to `CCOc1c(OC)c(OC)cc2c1C(=O)[C@]1(OC)C=C[C@H]2N(C(=O)OC)N1C(=O)OC`, the IC50 with Trypanosoma cruzi and in the data set on Leishmania donovani was over 68.8 µM throughout. The CC50 in data set [1] is over 300 µg/mL.

Regarding `COc1cc2c(c(OCc3ccc(F)cc3)c1OC)C(=O)[C@]1(OC)C=C[C@H]2N(C(=O)OC(C)C)N1C(=O)OC(C)C`, the IC50 in the data set with Trypanosoma cruzi was 18 µM; in the data set with Leishmania donovani, over 52.4 µM. For the same molecule, the CC50 in data set [1] was over 300 µg/mL.

For `COC(=O)N1[C@@H]2C=C[C@@](OC)(C(=O)c3c2cc(OC)c(OC)c3OCc2ccccc2)N1C(=O)OC`, the concentration for half-maximal inhibition (IC50) with Trypanosoma cruzi and in the data set on Leishmania donovani was over 60.2 µM throughout. Moreover, the CC50 in data set [1] was over 300 µg/mL.

On to `CCOC(=O)N1[C@@H]2C=C[C@@](OC)(C(=O)c3c2cc(OC)c(OC)c3OCC)N1C(=O)OCC`, for which the IC50 with Trypanosoma cruzi and with Leishmania donovani was over 64.6 µM each time. Besides, the CC50 in data set [1] is over 300 µg/mL.

On to `COC(=O)N1[C@@H]2C=C[C@@](OC)(C(=O)c3c2cc(OC)c(OC)c3OCc2ccc(F)cc2)N1C(=O)OC`, for which the IC50 in the data set with Trypanosoma cruzi and with Leishmania donovani was over 58.1 µM in each case. In data set [1], the CC50 was found to be 56.6 µg/mL (≈ 110 µM).

`COC(=O)N1[C@@H]2C=C[C@@](OC)(C(=O)c3c2cc(OC)c(OC)c3OCc2ccccc2F)N1C(=O)OC`: the IC50 in the data set on Trypanosoma cruzi and in the data set on Leishmania donovani was over 58.1 µM throughout. Further, in data set [1], the CC50 stood at 137 µg/mL (≈ 266 µM).

Regarding `CCCOc1c(OC)c(OC)cc2c1C(=O)[C@]1(OC)C=C[C@H]2N(C(=O)OCC)N1C(=O)OCC`, the concentration for half-maximal inhibition (IC50) with Trypanosoma cruzi and in the data set with Leishmania donovani was over 62.7 µM each time. Besides, the CC50 in data set [1] is over 300 µg/mL.

For the molecule `CCOC(=O)N1[C@@H]2C=C[C@@](OC)(C(=O)c3c2cc(OC)c(OC)c3OCc2ccccc2)N1C(=O)OCC`, the half-inhibitory concentration (IC50) was 54.1 µM in the data set with Trypanosoma cruzi and over 57 µM in the data set on Leishmania donovani. The CC50 in data set [1] was 215 µg/mL (≈ 409 µM).

On to `CCOC(=O)N1[C@@H]2C=C[C@@](OC)(C(=O)c3c2cc(OC)c(OC)c3OCc2ccc(F)cc2)N1C(=O)OCC`, for which the IC50 is 51.3 µM in the data set on Trypanosoma cruzi and over 55.1 µM in the data set on Leishmania donovani. Further, in data set [1], the CC50 turned out to be 51.8 µg/mL (≈ 95.1 µM).

Take `CCOC(=O)N1[C@@H]2C=C[C@@](OC)(C(=O)c3c2cc(OC)c(OC)c3OCc2ccc(Cl)cc2)N1C(=O)OCC`: the IC50 in the data set on Trypanosoma cruzi was 83.8 µM; in the data set with Leishmania donovani, over 53.5 µM. Further, in data set [1], the CC50 was determined as 99.9 µg/mL (≈ 178 µM).

Turning to `CCOC(=O)N1[C@@H]2C=C[C@@](OC)(C(=O)c3c2cc(OC)c(OC)c3OCc2ccc(OC)cc2)N1C(=O)OCC`, the IC50 in the data set on Trypanosoma cruzi was over 53.9 µM; in the data set with Leishmania donovani it was 9.9 µM. The CC50 in data set [1] stood at 63.1 µg/mL (≈ 113 µM).

For `COc1cc2c(c(OC)c1OC)C(=O)[C@]1(OC)C=C[C@H]2N(C(=O)OC(C)C)N1C(=O)OC(C)C`, the IC50 in the data set with Trypanosoma cruzi and with Leishmania donovani was over 62.7 µM throughout. Further, the CC50 in data set [1] was over 300 µg/mL.

For the molecule `CCOc1c(OC)c(OC)cc2c1C(=O)[C@]1(OC)C=C[C@H]2N(C(=O)OC(C)C)N1C(=O)OC(C)C`, the IC50 in the data set on Trypanosoma cruzi and in the data set with Leishmania donovani was over 60.9 µM each time. For the same molecule, the CC50 in data set [1] is over 300 µg/mL.

On to `COc1cc2c(c(OCc3ccccc3)c1OC)C(=O)[C@]1(OC)C=C[C@H]2N(C(=O)OC(C)C)N1C(=O)OC(C)C`, for which the results for the IC50 with Trypanosoma cruzi and in the data set with Leishmania donovani were 12.1 µM and over 54.1 µM, respectively. In addition, the CC50 in data set [1] stood at 94 µg/mL (≈ 169 µM).

As to `CCOC(=O)N1[C@@H]2C=C[C@@](OC)(C(=O)c3c2cc(OC)c(OC)c3OCc2ccccc2F)N1C(=O)OCC`, the IC50 with Trypanosoma cruzi was found to be 54.1 µM; with Leishmania donovani, 8.6 µM. Besides, the CC50 in data set [1] was determined as 99.7 µg/mL (≈ 183 µM). Further, the selectivity ratio in data set [2] is 21.3.

Consider `COC(=O)N1[C@@H]2C=C[C@@](OC)(C(=O)c3c2cc(OC)c(OC)c3OCc2ccc(OC)cc2)N1C(=O)OC`, for which the IC50 in the data set on Trypanosoma cruzi and in the data set on Leishmania donovani was over 56.8 µM throughout. The CC50 in data set [1] was over 300 µg/mL.

Take `COc1cc2c(c(OCc3ccccc3F)c1OC)C(=O)[C@]1(OC)C=C[C@H]2N(C(=O)OC(C)C)N1C(=O)OC(C)C`: the concentration for half-maximal inhibition (IC50) with Trypanosoma cruzi is 9.5 µM; in the data set with Leishmania donovani it was over 52.4 µM. Moreover, the CC50 in data set [1] worked out at 109 µg/mL (≈ 190 µM).

For `COc1cc2c(c(OCc3ccc(Cl)cc3)c1OC)C(=O)[C@]1(OC)C=C[C@H]2N(C(=O)OC(C)C)N1C(=O)OC(C)C`, the IC50 with Trypanosoma cruzi is under 1.9 µM; in the data set with Leishmania donovani, 47.4 µM. Further, the CC50 in data set [1] is 42 µg/mL (≈ 71.3 µM). The selectivity ratio in data set [3] was 37.6.

In the case of `COc1ccc(COc2c(OC)c(OC)cc3c2C(=O)[C@]2(OC)C=C[C@H]3N(C(=O)OC(C)C)N2C(=O)OC(C)C)cc1`, the concentration for half-maximal inhibition (IC50) in the data set with Trypanosoma cruzi was 9.8 µM; in the data set on Leishmania donovani it was over 51.3 µM. The CC50 in data set [1] is 47.9 µg/mL (≈ 81.9 µM).

Regarding `COC(=O)N1[C@@H]2C=C[C@@](OC)(C(=O)c3c2cc(OC)c(OC)c3O)N1C(=O)OC`, the IC50 in the data set with Trypanosoma cruzi and in the data set with Leishmania donovani was over 73.5 µM throughout. Besides, the CC50 in data set [1] was over 300 µg/mL.

On to `CCCOc1c(OC)c(OC)cc2c1C(=O)[C@]1(OC)C=C[C@H]2N(C(=O)OC)N1C(=O)OC`, for which the half-maximal inhibitory concentration (IC50) with Trypanosoma cruzi and in the data set on Leishmania donovani was over 66.6 µM in each case. Besides, the CC50 in data set [1] is over 300 µg/mL.

Regarding `COC(=O)N1[C@@H]2C=C[C@@](OC)(C(=O)c3c2cc(OC)c(OC)c3OCc2ccc(Cl)cc2)N1C(=O)OC`, the IC50 in the data set with Trypanosoma cruzi is 50.9 µM; in the data set with Leishmania donovani, over 56.3 µM. The CC50 in data set [1] is 55.9 µg/mL (≈ 105 µM).

`CCCOc1c(OC)c(OC)cc2c1C(=O)[C@]1(OC)C=C[C@H]2N(C(=O)OC(C)C)N1C(=O)OC(C)C`: the 50% inhibitory concentration (IC50) in the data set on Trypanosoma cruzi is 42.3 µM; in the data set with Leishmania donovani, over 59.2 µM. Further, in data set [1], the CC50 is 299 µg/mL (≈ 590 µM).

Take `CCCCOc1c(OC)c(OC)cc2c1C(=O)[C@]1(OC)C=C[C@H]2N(C(=O)OC(C)C)N1C(=O)OC(C)C`: the IC50 with Trypanosoma cruzi is 23.4 µM; with Leishmania donovani, over 57.6 µM. For the same molecule, the CC50 in data set [1] was determined as 22.1 µg/mL (≈ 42.5 µM).

As for `CCCCOc1c(OC)c(OC)cc2c1C(=O)[C@]1(OC)C=C[C@H]2N(C(=O)OC)N1C(=O)OC`, the figures for the IC50 in the data set on Trypanosoma cruzi and in the data set on Leishmania donovani were 57.4 µM and over 64.6 µM, respectively. Besides, the CC50 in data set [1] was over 300 µg/mL.

Consider `COc1cc2c(c(O)c1OC)C(=O)[C@]1(OC)C=C[C@H]2N(C(=O)OC(C)C)N1C(=O)OC(C)C`, for which the IC50 in the data set on Trypanosoma cruzi and in the data set with Leishmania donovani was over 64.6 µM in each case. Also, the CC50 in data set [1] was over 300 µg/mL.

For the molecule `CCCCOc1c(OC)c(OC)cc2c1C(=O)[C@]1(OC)C=C[C@H]2N(C(=O)OCC)N1C(=O)OCC`, the concentration for half-maximal inhibition (IC50) in the data set with Trypanosoma cruzi and in the data set on Leishmania donovani was over 60.9 µM throughout. Moreover, in data set [1], the CC50 worked out at 76 µg/mL (≈ 154 µM).

`O=C(Cn1ccnc1[N+](=O)[O-])NCc1ccccc1` [BENZNIDAZOLE]: the 50% inhibitory concentration (IC50) in the data set on Trypanosoma cruzi stood at 8.7 µM.

What is called IC50 is the midpoint of a concentration-inhibition curve. The low end stands for greater potency in that assay, the high end for weaker potency in that assay.
